Assay results: patent US8338475B2, “Anti-proliferative pharmaceutical composition” (BioCis Pharma Oy, priority 2003, dated 2012)

Tests used:
cell lines = experiment: Proliferation assay, statements on the cell lines as a group; type: cell-based, human; conditions: all three studied transformed cell lines; 44 h; pH 6.5 (FIG. 4)
Experimental: The cells were cultured for 44 h with or without 2 μM camptothecin (CPT) at pH 6.5 or 7.4 conditions. After a 2-h incubation with the proliferation assay reagent, the absorbance at 490 nm was recorded. Cells were cultured in a density of 15,000 cells (K562, HT-1080, HK293) or 75,000 cells (the other cells) in a volume of 150 μl.
Three cell lines were cultured with cis-UCA and/or 1 μM camptothecin at a density of […] per well (100 μl) for 44 h in pH 6.5 medium. Blank wells with all the cis-UCA concentrations but without cells were included and their absorbance subtracted from those of the corresponding test wells.
Transformed tumour cell lines WM 266-4 and A2058 (cutaneous melanoma), HT-1080 (epithelial fibrosarcoma), HeLa (epithelial adenocarcinoma of cervix), HK293 (kidney epithelial cells) and non-transformed cell line HSF (skin fibroblast from a healthy volunteer donor) of human origin have been described earlier (Li et al. 2003). […]
The proliferation activity of cultured cell lines was quantified in flat-bottom 96-well plates with a modified colorimetric assay based on a tetrazolium derivative (CellTiter 96 Aqueous One Solution Cell Proliferation Assay, Promega). The cells were cultured in the presence of camptothecin and/or cis-UCA for 20 to 92 h, then the proliferation reagent was added for 2 h, and the absorbance at 490 nm was measured in a plate reader. […]

caspase-3 = experiment: Determination of caspase-3 activity in A2058 melanoma cells; type: cell-based, human; conditions: 30 mM cis-UCA in pH 6.5 medium, at 2 h
Experimental: The cells were allowed to attach to culture flasks at 5×10^6 cells per 7 ml of medium overnight. The medium was then changed to new medium adjusted to pH 6.5 with or without 30 mM cis-UCA. The cells were incubated for 30 min to 18 h, released with trypsin-EDTA, and lysed for caspase-3 assay. After subtracting the blank values, the mean caspase-3 activity from the cis-UCA-treated cells was divided by the mean value from the corresponding control cells with the same incubation time. The data are the mean±SD from three parallel reactions in the caspase-3 assay.
Caspase-3 is a proteolytic enzyme that has a central role in the apoptotic cascade. The colorimetric assay is based on the hydrolysis of the peptide substrate acetyl-Asp-Glu-Val-Asp p-nitroanilide (Ac-DEVD-pNA) by caspase-3, resulting in the release of p-nitroaniline (pNA).
Cells grown in normal medium were counted and divided into separate cell culture flasks containing 1 μM CPT, 10 mM cis-UCA, or both, in pH 6.5 medium. […] Caspase-3 activity was measured in cell lysates. […] After washing with ice-cold PBS, the counted cells were resuspend in cell lysis buffer (50 mM Hepes, pH 7.4, 5 mM CHAPS, and 5 mM dithiotreitol) in a density of 10^8 cells/ml, incubated on ice for 15-20 min, and the cell lysates pelleted at 15,000×g for 20 min at 4° C. […] Absorbance of the formed end product p-nitroaniline (pNA) was recorded at 405 nm after 2 and 17 h.

O=C(O)/C=C\c1c[nH]cn1 [cis-UCA, cis-urocanic acid]
concentration at which proliferation was inhibited (cell lines): ≥ 3 mM | peak caspase-3 activity compared to cells treated with pH 6.5 medium only (caspase-3): 380%
